# Test results as given in patent publication US20240182525A1, “NOVEL BICYCLIC COMPOUND, OPTICAL ISOMER THEREOF OR PHARMACEUTICALLY ACCEPTABLE SALT THEREOF, USE THEREOF, AND PREPARATION METHOD THEREFOR” (KOREARESEARCH INSTITUTE OF BIOSCIENCE AND BIOTECHNOLOGY, priority 2021, published 2024).
# Tests used:
# [1] = Cytotoxicity assay, 3T3-L1; format: cell-based; conditions: mouse, 3T3-L1 cells (preadipocytes); 3T3-L1, 48 hours, maximum concentration 100 μM
# Protocol: (§1) To measure the cytotoxicity of the compound represented by Chemical Formula 1 (Chemical Formula 1-1), toxicity was measured in mouse preadipocyte 3T3-L1 cell line, human malignant melanoma A375 cell line, mouse malignant melanoma B16F10 cell line, human oral cancer MDA-MB-435 cell line, mouse breast cancer 4T1 cell line, human breast cancer MCF7 cell line, human brain cancer U87MG cell line, human glioblastoma U373MG cell line, human cervical cancer HeLa cell line, mouse embryonic fibroblast (MEF) cell line, human embryonic kidney HEK293T cell line (Korea Cell Line Bank). First, 1×10^4 cells were divided into 200 μl each in a 96-well plate using Dulbecco's Modified Eagle's Medium (DMEM) supplemented with 10% fetal bovine serum (FBS), […] streptomycin, and 50 U/ml penicillin, while maintaining various cells at 37r in an atmosphere of 5% CO2. The cells were treated with the compound of Chemical Formula 1-1 of the present invention at a maximum concentration of 100 μM and cultured for 48 hours under the same culture conditions. After the incubation, the culture media were removed and the cytotoxicity test results were confirmed (Table 2 and FIG. 3 below).
# [2] = Cytotoxicity assay, MDA-MB-435; format: cell-based; conditions: human, MDA-MB-435 cells (printed as oral cancer); MDA-MB-435, 48 hours, maximum concentration 100 μM
# Protocol: as §1
# Cytotoxicity assay, 4T1 = format: cell-based; conditions: mouse, 4T1 cells (breast cancer); 4T1, 48 hours, maximum concentration 100 μM
# Protocol: as §1
# Cytotoxicity assay, MCF7 = format: cell-based; conditions: human, MCF7 cells (breast cancer); MCF7, 48 hours, maximum concentration 100 μM
# Protocol: as §1
# [3] = Cytotoxicity assay, U87MG; format: cell-based; conditions: human, U87MG cells (brain cancer), maximum concentration 100 μM
# Protocol: as §1
# [4] = Cytotoxicity assay, U373MG; format: cell-based; conditions: human, U373MG cells (glioblastoma), maximum concentration 100 μM
# Protocol: as §1
# Cytotoxicity assay, HeLa = format: cell-based; conditions: human, HeLa cells (cervical cancer), maximum concentration 100 μM
# Protocol: as §1
# [5] = test system: β, a Wnt3a signaling protein; assay: Western blotting of Wnt3a signaling protein in 3T3-L1; format: cell-based, mouse; conditions: 7.5 μM, 3T3-L1, western blotting, FIGS. 6 and 7
# Protocol: To confirm the Wnt3a signaling of Chemical Formula 1-1, the protein level of β, a Wnt3a signaling protein, was measured in the 3T3-L1 cell line. The 3T3-L1 cells were cultured in a 6-well plate (2×10^5 cell/well), and the next day, the cells were replaced with normal culture media (Undifferentiated media; UND) and differentiation induction media (Differentiation media; DM), respectively, followed by treatment with the compound of Chemical Formula 1-1 at 7.5 μM for 48 hours, and then the cells were replaced with new normal culture media (Maintaining media; MM). Here, the compound of Chemical Formula 1-1 at a concentration of 7.5 μM was cultured for 72 hours, followed by western blotting. In FIGS. 6 and 7, it was confirmed that the protein level of β increased in the treatment of the compound of Chemical Formula 1-1 alone and the treatment of Chemical Formula 1-1 and Wnt3a together.
# mouse 3T3-L1 cell line = assay: Adipogenesis inhibitory effect test, Oil Red O staining; format: cell-based
# Protocol: The adipogenesis inhibitory activity of Chemical Formula 1 according to the present invention was measured through Oil Red O staining in mouse 3T3-L1 cell line. First, 3T3-L1 cells were placed in a 48-well plate (1×10^4 cell/well) and cultured for 24 hours in a 37° C. CO2 incubator. The next day, the cells were replaced with the normal culture media (Undifferentiated media; UND) and the differentiation induction medium (Differentiation media; DM), respectively, followed by treatment with 2.5-10 μM of Chemical Formula 1-1 for 48 hours. Then, the cells were replaced with the normal culture media (Maintainment media; MM), and cultured with 2.5-10 μM of Chemical Formula 1-1 for 72 hours, and then treated with Oil Red O.
# In addition, the same experiment was conducted with the compound of Chemical Formula 1-1 at a fixed concentration of 7.5 μM and Wnt3a-conditional media at 10-2.5%.
# [6] = test system: adipocyte differentiation-associated proteins in the 3T3-L1 cell line; assay: Western blotting of adipocyte differentiation-associated proteins; format: cell-based, mouse; conditions: 7.5 μM, FIG. 10
# Protocol: Additionally, in order to verify the adipogenesis inhibitory ability of the Chemical Formula 1 according to the present invention, the level of adipocyte differentiation-associated proteins in the 3T3-L1 cell line was measured. The 3T3-L1 cells were cultured in a 6-well plate (2×10^5 cell/well), and the next day, the cells were replaced with normal culture media (Undifferentiated media; UND) and differentiation induction media (Differentiation media; DM), respectively, followed by treatment with the compound of Chemical Formula 1-1 at 7.5 μM for 48 hours, and then the cells were replaced with new normal culture media (Maintaining media; MM). When replacement with normal culture media, the cells were treated with 7.5 μM of Chemical Formula 1-1, and cultured for 72 hours more, followed by Western blotting.
# [7] = test system: adipogenesis-associated genes (3T3-L1 cells); assay: Q-PCR of adipogenesis-associated genes; format: cell-based, mouse; conditions: FIG. 11
# Text: In addition, real-time polymerase chain reaction (Q-PCR) was used to confirm the expression of adipogenesis-associated genes. As a result, it was confirmed that the amount of adipogenesis induction-associated mRNA was reduced when treated with the compound of Chemical Formula 1 according to the present invention (FIG. 11).
# C57BL/C6 mice = assay: Blood obesity and liver damage markers in high calorie diet mice; format: in vivo, mouse; conditions: plasma, compared to high calorie control group, FIG. 13
# Protocol: Then, after the experiment was completed, the animal blood of each group was collected and centrifuged to separate plasma, and then representative obesity markers in the blood such as total cholesterol (tCHO), high density lipoprotein (HDL), and low density lipoprotein (LDL), and liver damage markers such as glutamic oxaloacetic transaminase (GOT) and glutamic pyruvic acid transaminase (GPT) were analyzed with a blood chemistry analyzer.
smiles,measurement,setting,value
CC(C)CC1NC(=O)C2CCCN2C(=O)C(C(O)C(C)C)NC(=O)CNC(=O)C(C(C)O)NC(=O)C2NC(=O)C(NC(=O)/C=C/c3ccccc3C(O)C(C)O)C(C)OC(=O)C(CC(N)=O)NC(=O)C(NC(=O)C(O)NC1=O)C(O)c1ccc(O)c(c1)Oc1ccc2cc1 (stereo not shown) [Chemical Formula 1-1],IC50 at 48 h,[1],> 100 µM
same,IC50 at 48 h,[2],> 100 µM
same,IC50 at 48 h,"Cytotoxicity assay, 4T1",> 100 µM
same,IC50 at 48 h,"Cytotoxicity assay, MCF7",> 100 µM
same,IC50 at 48 h,[3],> 100 µM
same,IC50 at 48 h,[4],89.5 µM
same,IC50 at 48 h,"Cytotoxicity assay, HeLa",> 100 µM
same,protein level of β,[5]; compound alone,increased
same,protein level of β,[5]; together with Wnt3a,increased
same,adipogenesis inhibitory activity,"mouse 3T3-L1 cell line; 2.5-10 μM, Oil Red O, FIG. 8",exhibited the adipogenesis inhibitory activity in a concentration-dependent manner
same,adipogenesis inhibitory activity,"mouse 3T3-L1 cell line; fixed 7.5 μM with Wnt3a-conditional media at 10-2.5%, FIG. 9",excellent
same,level of adipogenesis induction-associated proteins,"[6]; compound alone, differentiated adipocytes",lower protein levels
same,level of adipogenesis induction-associated proteins,[6]; simultaneous treatment with Wnt3a-conditional media (2.5%),lower protein levels
same,amount of adipogenesis induction-associated mRNA,[7],reduced
same,glutamic oxaloacetic transaminase (GOT),C57BL/C6 mice,significantly reduced
same,glutamic pyruvic acid transaminase (GPT),C57BL/C6 mice,significantly reduced
same,high density lipoprotein (HDL),C57BL/C6 mice,increased
same,low density lipoprotein (LDL),C57BL/C6 mice,significantly reduced
same,total cholesterol (tCHO),C57BL/C6 mice,significantly reduced
